Measurements reported in article PMC10818746, “Inhibition of CYP1A1 Alleviates Colchicine-Induced Hepatotoxicity” (Toxins, 2024).

Tests used:
Type in all cases: in vitro ADME
Conditions in all cases: colchicine 25 µM, NADPH 1 mM, CYP 2 pmol/mL, PBS pH 7.4; mean ± SD (n = 2)
[1] = target: T1, CYP2C8 (Homo sapiens, UniProt P10632); experiment: Colchicine metabolism by cDNA-expressed recombinant CYP2C8
T1 construct: purchased Research Institute for Liver Diseases Co., Ltd. (Shanghai, China)
T1 sequence (P10632 1-490): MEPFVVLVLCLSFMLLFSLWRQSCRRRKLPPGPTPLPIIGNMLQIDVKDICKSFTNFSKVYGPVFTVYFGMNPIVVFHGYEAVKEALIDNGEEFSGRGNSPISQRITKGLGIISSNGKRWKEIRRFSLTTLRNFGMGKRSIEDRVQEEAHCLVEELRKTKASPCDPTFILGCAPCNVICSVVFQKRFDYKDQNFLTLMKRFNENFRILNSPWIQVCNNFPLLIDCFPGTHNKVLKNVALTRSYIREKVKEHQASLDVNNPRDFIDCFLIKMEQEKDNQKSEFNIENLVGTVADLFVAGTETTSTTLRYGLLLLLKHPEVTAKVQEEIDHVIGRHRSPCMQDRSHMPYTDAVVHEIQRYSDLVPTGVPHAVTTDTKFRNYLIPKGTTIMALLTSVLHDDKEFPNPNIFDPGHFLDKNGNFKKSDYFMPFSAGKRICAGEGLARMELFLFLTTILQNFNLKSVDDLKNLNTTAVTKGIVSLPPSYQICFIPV
Experimental: (§1) Pre-cooled acetonitrile was used to terminate the reaction, and then centrifugation (4 °C, 12,000 rpm, 20 min) was performed to obtain the sample.
(§2) All samples were analyzed as shown in [17] and are briefly described in Supporting Information. […]
(§3) Supplementary materials and methods
(§4) Reference numbers refer to the main text list
(§5) UHPLC‐Q exactive plus MS Analysis
(§6) All samples were analyzed on a liquid chromatography system including a Vanquish autosampler, Vanquish detector, Vanquish pump (Thremo Fisher Scientific, Santa Clara, CA). Samples were separated on an ACQUITY UPLC HSS T3 column (2.1×100 mm, […], Waters, USA). The injection volume: 5 μL, and the flow rate was 0.3 mL/min.
(§7) Phase A was H2O containing 0.01% formic acid, and phase B was acetonitrile containing 0.01% formic acid. The elution gradient was as follows: 0‐12 mi n, 2‐98% B; 12‐14 min, 2% A; 14‐16 min, 98% A. Other parameters are as follows: column temperature 45 ℃ , flow rate of collision gas and dry gas 9 L/min. Capillary voltage 3.5 kV, temperature 350 ℃ , atomizer pressure 35 psi. Vanquish UHPLC‐Q Exactive plus MS (Thermo Fisher, USA) was collected in both positive modes, operating in full scan mode with 60‐900 m/z. […]

[2] = target: T2, CYP2A6 (Homo sapiens, UniProt P11509); experiment: Colchicine metabolism by cDNA-expressed recombinant CYP2A6
T2 construct: purchased Research Institute for Liver Diseases Co., Ltd. (Shanghai, China)
Experimental: as §1, §2, §3, §4, §5, §6, §7

[3] = target: T3, CYP3A5 (Homo sapiens, UniProt P20815); experiment: Colchicine metabolism by cDNA-expressed recombinant CYP3A5
T3 construct: purchased Research Institute for Liver Diseases Co., Ltd. (Shanghai, China)
Experimental: as §1, §2, §3, §4, §5, §6, §7

[4] = target: T4, CYP3A4 (Homo sapiens, UniProt P08684); experiment: Colchicine metabolism by cDNA-expressed recombinant CYP3A4
T4 construct: purchased Research Institute for Liver Diseases Co., Ltd. (Shanghai, China)
Experimental: as §1, §2, §3, §4, §5, §6, §7

[5] = target: T5, CYP2C19 (Homo sapiens, UniProt P33261); experiment: Colchicine metabolism by cDNA-expressed recombinant CYP2C19
T5 construct: purchased Research Institute for Liver Diseases Co., Ltd. (Shanghai, China)
Experimental: as §1, §2, §3, §4, §5, §6, §7

[6] = target: T6, CYP1A1 (Homo sapiens, UniProt P04798); experiment: Colchicine metabolism by cDNA-expressed recombinant CYP1A1
T6 construct: purchased Research Institute for Liver Diseases Co., Ltd. (Shanghai, China)
T6 sequence (P04798 1-512): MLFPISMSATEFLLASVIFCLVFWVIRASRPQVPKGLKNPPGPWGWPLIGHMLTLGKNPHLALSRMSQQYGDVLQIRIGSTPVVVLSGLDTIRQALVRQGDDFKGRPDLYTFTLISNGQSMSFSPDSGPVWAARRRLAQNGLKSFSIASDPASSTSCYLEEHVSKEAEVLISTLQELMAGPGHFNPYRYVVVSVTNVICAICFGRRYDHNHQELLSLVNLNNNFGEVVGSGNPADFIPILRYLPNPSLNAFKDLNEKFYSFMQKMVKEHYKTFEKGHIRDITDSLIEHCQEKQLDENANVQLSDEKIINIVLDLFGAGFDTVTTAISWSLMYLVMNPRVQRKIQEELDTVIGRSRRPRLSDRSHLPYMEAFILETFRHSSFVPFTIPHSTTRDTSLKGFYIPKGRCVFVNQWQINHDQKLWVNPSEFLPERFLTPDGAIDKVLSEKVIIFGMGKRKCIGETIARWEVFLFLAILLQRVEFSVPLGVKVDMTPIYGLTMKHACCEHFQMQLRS
Experimental: as §1, §2, §3, §4, §5, §6, §7

[7] = target: T7, CYP2C9 (Homo sapiens, UniProt P11712); experiment: Colchicine metabolism by cDNA-expressed recombinant CYP2C9
T7 construct: purchased Research Institute for Liver Diseases Co., Ltd. (Shanghai, China)
Experimental: as §1, §2, §3, §4, §5, §6, §7

[8] = target: T8, CYP1B1 (Homo sapiens, UniProt Q16678); experiment: Colchicine metabolism by cDNA-expressed recombinant CYP1B1
T8 construct: purchased Research Institute for Liver Diseases Co., Ltd. (Shanghai, China)
T8 sequence (Q16678 1-543): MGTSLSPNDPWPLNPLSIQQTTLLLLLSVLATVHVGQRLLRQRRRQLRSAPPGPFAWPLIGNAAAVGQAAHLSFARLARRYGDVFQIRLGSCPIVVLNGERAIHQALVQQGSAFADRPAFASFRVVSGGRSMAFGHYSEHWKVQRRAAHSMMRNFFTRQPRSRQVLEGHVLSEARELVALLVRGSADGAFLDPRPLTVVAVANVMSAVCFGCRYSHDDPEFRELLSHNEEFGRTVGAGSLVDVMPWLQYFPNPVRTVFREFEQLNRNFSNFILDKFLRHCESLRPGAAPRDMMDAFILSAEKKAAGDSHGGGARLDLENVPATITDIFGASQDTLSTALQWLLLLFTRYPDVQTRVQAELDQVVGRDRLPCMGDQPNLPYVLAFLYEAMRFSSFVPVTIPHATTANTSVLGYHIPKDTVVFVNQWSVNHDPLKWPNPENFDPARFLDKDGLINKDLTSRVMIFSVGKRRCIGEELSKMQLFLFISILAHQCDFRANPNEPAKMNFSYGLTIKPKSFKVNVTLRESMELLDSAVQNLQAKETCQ
Experimental: as §1, §2, §3, §4, §5, §6, §7

T7 sequence (P11712 whole entry): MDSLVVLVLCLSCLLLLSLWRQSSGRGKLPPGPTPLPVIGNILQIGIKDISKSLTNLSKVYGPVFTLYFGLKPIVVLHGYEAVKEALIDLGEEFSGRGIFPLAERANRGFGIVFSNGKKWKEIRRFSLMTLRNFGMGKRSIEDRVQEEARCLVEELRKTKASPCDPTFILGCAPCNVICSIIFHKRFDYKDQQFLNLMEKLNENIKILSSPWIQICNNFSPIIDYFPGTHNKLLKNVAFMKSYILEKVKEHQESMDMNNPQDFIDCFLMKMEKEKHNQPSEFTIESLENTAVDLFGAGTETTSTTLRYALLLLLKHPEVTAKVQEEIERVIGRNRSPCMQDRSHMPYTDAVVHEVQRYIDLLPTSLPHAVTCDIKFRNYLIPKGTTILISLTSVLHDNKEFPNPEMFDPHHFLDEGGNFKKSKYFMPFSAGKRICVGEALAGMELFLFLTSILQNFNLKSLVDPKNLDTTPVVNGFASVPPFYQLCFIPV
T3 sequence (P20815 whole entry): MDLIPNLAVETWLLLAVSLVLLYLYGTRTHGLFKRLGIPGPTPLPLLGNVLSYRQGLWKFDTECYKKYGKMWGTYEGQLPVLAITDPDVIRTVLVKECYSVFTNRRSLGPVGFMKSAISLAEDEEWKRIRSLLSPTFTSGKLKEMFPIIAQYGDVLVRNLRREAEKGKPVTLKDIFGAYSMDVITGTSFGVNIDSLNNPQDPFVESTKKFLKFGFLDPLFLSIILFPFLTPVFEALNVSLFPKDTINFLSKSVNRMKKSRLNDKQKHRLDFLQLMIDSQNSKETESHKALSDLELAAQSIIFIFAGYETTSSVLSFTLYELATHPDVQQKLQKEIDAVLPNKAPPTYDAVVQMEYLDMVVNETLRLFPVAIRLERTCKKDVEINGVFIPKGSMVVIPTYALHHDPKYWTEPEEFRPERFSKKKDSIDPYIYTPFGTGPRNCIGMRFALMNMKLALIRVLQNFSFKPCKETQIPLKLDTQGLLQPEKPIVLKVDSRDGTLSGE
T4 sequence (P08684 whole entry): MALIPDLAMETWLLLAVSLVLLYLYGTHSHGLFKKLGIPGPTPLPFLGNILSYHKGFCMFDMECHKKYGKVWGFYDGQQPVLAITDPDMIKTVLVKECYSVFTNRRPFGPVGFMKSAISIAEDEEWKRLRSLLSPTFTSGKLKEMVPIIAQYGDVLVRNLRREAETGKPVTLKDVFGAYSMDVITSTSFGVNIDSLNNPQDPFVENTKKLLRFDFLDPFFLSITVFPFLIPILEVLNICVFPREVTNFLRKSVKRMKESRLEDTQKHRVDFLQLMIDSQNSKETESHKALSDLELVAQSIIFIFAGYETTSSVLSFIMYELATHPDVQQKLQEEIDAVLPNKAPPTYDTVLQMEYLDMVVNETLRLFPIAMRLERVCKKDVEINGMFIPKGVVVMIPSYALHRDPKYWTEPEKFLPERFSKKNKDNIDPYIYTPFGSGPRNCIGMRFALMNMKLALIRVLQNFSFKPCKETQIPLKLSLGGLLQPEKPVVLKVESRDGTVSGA
T2 sequence (P11509 whole entry): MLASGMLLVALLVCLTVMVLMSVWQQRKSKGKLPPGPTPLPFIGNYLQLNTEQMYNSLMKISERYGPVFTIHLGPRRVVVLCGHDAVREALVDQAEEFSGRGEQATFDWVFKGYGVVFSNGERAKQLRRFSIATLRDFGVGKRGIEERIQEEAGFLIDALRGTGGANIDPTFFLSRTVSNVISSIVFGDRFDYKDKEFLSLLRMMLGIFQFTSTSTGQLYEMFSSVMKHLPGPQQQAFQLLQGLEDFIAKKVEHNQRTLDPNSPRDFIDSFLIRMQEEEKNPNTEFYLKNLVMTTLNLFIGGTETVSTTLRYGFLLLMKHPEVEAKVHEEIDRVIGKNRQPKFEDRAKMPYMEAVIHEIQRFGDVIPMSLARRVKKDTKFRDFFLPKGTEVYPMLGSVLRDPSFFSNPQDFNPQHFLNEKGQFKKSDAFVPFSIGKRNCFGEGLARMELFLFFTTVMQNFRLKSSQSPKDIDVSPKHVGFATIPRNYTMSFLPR
T5 sequence (P33261 whole entry): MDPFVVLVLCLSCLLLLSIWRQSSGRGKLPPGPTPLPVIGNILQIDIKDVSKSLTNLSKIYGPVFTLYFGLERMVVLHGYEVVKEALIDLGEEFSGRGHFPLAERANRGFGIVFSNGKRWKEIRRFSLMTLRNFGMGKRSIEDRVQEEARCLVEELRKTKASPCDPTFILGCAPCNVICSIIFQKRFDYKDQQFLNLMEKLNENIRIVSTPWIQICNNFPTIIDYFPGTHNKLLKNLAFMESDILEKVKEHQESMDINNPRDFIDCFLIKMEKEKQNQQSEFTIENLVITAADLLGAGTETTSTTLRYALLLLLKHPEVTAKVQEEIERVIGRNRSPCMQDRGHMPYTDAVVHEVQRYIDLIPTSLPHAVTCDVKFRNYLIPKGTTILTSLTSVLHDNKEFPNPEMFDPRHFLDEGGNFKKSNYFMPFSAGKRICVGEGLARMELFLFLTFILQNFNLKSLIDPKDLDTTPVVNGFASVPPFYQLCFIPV

SMILES | peak area of the metabolite after incubation with CYP2C8 as a percentage of the total peak areas from all the CYPs [1] [%] | peak area of the metabolite after incubation with CYP2A6 as a percentage of the total peak areas from all the CYPs [2] [%] | peak area of the metabolite after incubation with CYP3A5 as a percentage of the total peak areas from all the CYPs [3] [%] | peak area of the metabolite after incubation with CYP3A4 as a percentage of the total peak areas from all the CYPs [4] [%] | peak area of the metabolite after incubation with CYP2C19 as a percentage of the total peak areas from all the CYPs [5] [%] | peak area of the metabolite after incubation with CYP1A1 as a percentage of the total peak areas from all the CYPs [6] [%] | peak area of the metabolite after incubation with CYP2C9 as a percentage of the total peak areas from all the CYPs [7] [%] | peak area of the metabolite after incubation with CYP1B1 as a percentage of the total peak areas from all the CYPs [8] [%]
COc1cc2c(c(OC)c1OC)-c1ccc(O)c(=O)cc1[C@@H](NC(C)=O)CC2 [M4] | 7.21 ± 0.40 | 6.66 ± 2.12 | 7.36 ± 0.44 | 12.18 ± 0.70 | 6.69 ± 1.91 | 6.99 ± 0.30 | 6.44 ± 0.02 | 7.00 ± 0.10
COc1cc2c(c(OC)c1O)-c1ccc(OC)c(=O)cc1[C@@H](NC(C)=O)CC2 [M1] | 6.82 ± 0.03 | 5.39 ± 0.90 | 9.93 ± 0.49 | 14.93 ± 1.41 | 8.35 ± 0.65 | 3.91 ± 3.16 | 13.68 ± 5.29 | 4.56 ± 1.73
COc1c(O)cc2c(c1O)-c1ccc(OC)c(=O)cc1[C@@H](NC(C)=O)CC2 [M8] | 8.61 ± 4.55 | 4.23 ± 0.62 | 11.08 ± 1.09 | 12.27 ± 1.54 | 7.66 ± 2.52 | 9.32 ± 5.12 | 6.12 ± 3.22 | 7.48 ± 2.17
COc1cc2c(c(OC)c1OC)-c1ccc(OC)c(=O)cc1C=CC2 [M6] | 6.90 ± 1.01 | 8.25 ± 0.69 | 8.06 ± 0.09 | 6.55 ± 0.65 | 6.74 ± 0.36 | 8.78 ± 1.10 | 7.33 ± 0.35 | 7.14 ± 0.77
COc1cc2c(c(O)c1OC)-c1ccc(OC)c(=O)cc1[C@@H](NC(C)=O)CC2 [M2] | 3.69 ± 0.02 | 2.64 ± 0.16 | 12.14 ± 0.15 | 47.73 ± 5.45 | 6.27 ± 0.30 | 4.51 ± 2.24 | 5.57 ± 1.45 | 2.53 ± 0.65
COc1c(O)cc2c(c1OC)-c1ccc(OC)c(=O)cc1[C@@H](NC(C)=O)C=C2 [M5] | 7.37 ± 0.00 | 7.26 ± 8.64 | 8.12 ± 0.00 | 7.72 ± 15.62 | 8.63 ± 1.05 | 6.87 ± 0.00 | 7.59 ± 0.00 | 7.27 ± 2.20
